# Tested on: QT interval
# Assay: QT interval prolongation (ECG, class III action) in anesthetized guinea pigs
# Type: in vivo, Pirbright white guinea pigs
# Procedure: The action of the novel substances has been tested as follows:
# The experimental animals used were male and female Pirbright white guinea pigs weighing 300-500 g. 1.5 g/kg urethane i.p. were used for anesthesia. The substances were administered intravenously. The extremity lead II was recorded to measure the ECG conduction times and the heart rate. The measured variables were the QT and PQ intervals and the heart rate. 4-6 animals were used for each dose. The criterion for a class III action was an increase in the QT interval compared with the values before administration of the substance. A PQ increase and a large decrease in the heart rate were used as exclusion criteria. The ED20% is calculated from the linear relation between log dose (mg/kg) of the substance and the relative prolongation of the QT interval (Δ%).
structure (smiles),measurement,setting,value
"c1ccc(C23CCCN2c2ccccc2C2=NC4CCCCC4N23)cc1 (centres unmarked) [Example 22, 2,3,5,6,7,8-Hexahydro-2,3-tetramethylene-5-phenylimidazo[1,2-c]pyrrolo[1,2-a]quinazoline]",ED (20%),"Cavia porcellus, iv, read-out: Prolongation of the QT interval ED20%",0.56 mg/kg
same,Potency relative to that of d-sotalol = 1.0,"QT prolongation, ED20%, guinea pigs, intravenous, d-sotalol = 1.0",6.5

# — US5214047A, “Tetracyclic quinazoline derivatives, effective as antiarrythmic agents” (priority 1987, dated 1993)
